From ChEMBL document CHEMBL4715829, “Heterodimeric Rifampicin-Tobramycin conjugates break intrinsic resistance of Pseudomonas aeruginosa to doxycycline and chloramphenicol in vitro and in a Galleria mellonella in vivo model” (Eur J Med Chem, 2019)

What was measured:
Assay type in all cases: functional
Pseudomonas aeruginosa [1] = assay: Potentiation of doxycycline-induced antibacterial activity against wild type Pseudomonas aeruginosa PAO1 assessed as fold change in doxycycline MIC at <=9.8 uM incubated for 18 hrs in presence of doxycycline by broth microdilution assay; conditions: dose microM <=9.8
Pseudomonas aeruginosa [2] = assay: Antibacterial activity against Pseudomonas aeruginosa 100036 assessed as fractional inhibitory concentration incubated for 18 hrs in presence of rifampicin by broth microdilution assay
Pseudomonas aeruginosa [3] = assay: Potentiation of chloramphenicol-induced antibacterial activity against Pseudomonas aeruginosa 91433 assessed as fold change in chloramphenicol MIC at 9.8 uM incubated for 18 hrs in presence of chloramphenicol by broth microdilution assay relative to control
Pseudomonas aeruginosa [4] = assay: Potentiation of doxycycline-induced antibacterial activity against Pseudomonas aeruginosa 259-96918 assessed as fold change in doxycycline MIC at 7.6 uM incubated for 18 hrs in presence of doxycycline by broth microdilution assay relative to control
Pseudomonas aeruginosa [5] = assay: Antibacterial activity against Pseudomonas aeruginosa 262-101856 assessed as potentiation of doxycycline-induced antibacterial activity by measuring doxycycline MIC at 7.6 uM incubated for 18 hrs in presence of doxycycline by broth microdilution assay (reference value: 1024 ug/ml)

SMILES | fold change (FC) (Pseudomonas aeruginosa [1]) | FIC (Pseudomonas aeruginosa [2]) | fold change (FC) (Pseudomonas aeruginosa [3]) | fold change (FC) (Pseudomonas aeruginosa [4]) | MIC (Pseudomonas aeruginosa [5])
CO[C@H]1/C=C/O[C@@]2(C)Oc3c(C)c(O)c4c(O)c(c(/C=N/N5CCN(Cc6cn(CCCCCCO[C@@H]7[C@@H](O[C@H]8O[C@H](CO)[C@@H](O)[C@H](N)[C@H]8O)[C@H](N)C[C@H](N)[C@H]7O[C@H]7O[C@H](CN)[C@@H](O)C[C@H]7N)nn6)CC5)c(O)c4c3C2=O)NC(=O)/C(C)=C\C=C\[C@H](C)[C@H](O)[C@@H](C)[C@@H](O)[C@@H](C)[C@H](OC(C)=O)[C@@H]1C.Cl.Cl.Cl.Cl.Cl | 32 | 0.063 | 4 |  | 
CO[C@H]1/C=C/O[C@@]2(C)Oc3c(C)c(O)c4c(O)c(c(/C=N/N5CCN(Cc6cn(CCCCCCCCCCCCO[C@@H]7[C@@H](O[C@H]8O[C@H](CO)[C@@H](O)[C@H](N)[C@H]8O)[C@H](N)C[C@H](N)[C@H]7O[C@H]7O[C@H](CN)[C@@H](O)C[C@H]7N)nn6)CC5)c(O)c4c3C2=O)NC(=O)/C(C)=C\C=C\[C@H](C)[C@H](O)[C@@H](C)[C@@H](O)[C@@H](C)[C@H](OC(C)=O)[C@@H]1C.O=C(O)C(F)(F)F.O=C(O)C(F)(F)F.O=C(O)C(F)(F)F.O=C(O)C(F)(F)F.O=C(O)C(F)(F)F |  |  |  | 4 | 8 µg/mL
